{
  "source": "patent US12076443B2",
  "about": "“Preparation method of nanozyme composite-based hybrid hydrogel eye drop” (INSTITUTE OF OPHTHALMOLOGY AFFILIATED TO SHANDONG FIRST …, priority 2022, dated 2024)",
  "key": {"P. aeruginosa [1]": {"tested_on": "P. aeruginosa", "conditions": "P. aeruginosa isolated from the ocular surface; cited from earlier work"}, "[2]": {"tested_on": "drug-resistant P. aeruginosa strain", "experiment": "in vivo antibacterial experiment, corneal infection (drug-resistant P. aeruginosa strain)", "conditions": "FIGS. 8A-8B", "text": "(§1) The TCNH eye drop prepared in the above embodiment was used in in vitro antibacterial experiments for Escherichia coli (E. coli), P. aeruginosa, drug-resistant P. aeruginosa, and Candida albicans (C. albicans) and in vivo prevention and treatment experiments for corneal infections caused by P. aeruginosa and drug-resistant P. aeruginosa."}, "P. aeruginosa [3]": {"tested_on": "P. aeruginosa", "experiment": "in vitro antibacterial experiment of TCNH eye drop", "format": "cell-based, Pseudomonas aeruginosa", "text": "as §1\n(§2) FIG. 4 to FIG. 6 show results of the in vitro antibacterial experiments of the TCNH eye drop."}, "[4]": {"tested_on": "drug-resistant P. aeruginosa", "experiment": "in vitro antibacterial experiment of TCNH eye drop", "format": "cell-based, Pseudomonas aeruginosa", "text": "as §1, §2"}, "P. aeruginosa [5]": {"tested_on": "P. aeruginosa", "experiment": "in vivo antibacterial experiment, corneal infection (P. aeruginosa)", "conditions": "FIGS. 7A-7B", "text": "as §1"}, "[6]": {"tested_on": "Escherichia coli (E. coli)", "experiment": "in vitro antibacterial experiment of TCNH eye drop", "format": "cell-based", "text": "as §1, §2"}, "[7]": {"tested_on": "Candida albicans (C. albicans)", "experiment": "in vitro antibacterial experiment of TCNH eye drop", "format": "cell-based", "text": "as §1, §2"}},
  "data": [
    {"compound": "O=C(O)c1cn(C2CC2)c2cc(N3CCNCC3)c(F)cc2c1=O", "note": "[ciprofloxacin]", "values": [
      {"measurement": "average resistance rate of P. aeruginosa to the antibiotic", "setting": "P. aeruginosa [1]", "value": 9, "unit": "%"}
    ]},
    {"compound": "gentamicin", "values": [
      {"measurement": "average resistance rate of P. aeruginosa to the antibiotic", "setting": "P. aeruginosa [1]", "value": 22, "unit": "%"},
      {"measurement": "corneal infection", "setting": "[2]", "value": "significant infection"}
    ]},
    {"compound": "CC(C)(O/N=C(\\C(=O)N[C@@H]1C(=O)N2C(C(=O)[O-])=C(C[n+]3ccccc3)CS[C@H]12)c1csc(N)n1)C(=O)O", "note": "[ceftazidime]", "values": [
      {"measurement": "average resistance rate of P. aeruginosa to the antibiotic", "setting": "P. aeruginosa [1]", "value": 13, "unit": "%"}
    ]},
    {"compound": "OO", "note": "[H2O2, hydrogen peroxide]", "values": [
      {"measurement": "bacterial colonies on plates (plate experiment)", "setting": "P. aeruginosa [3]; FIG. 4", "value": "overgrown with bacteria"},
      {"measurement": "live bacteria stained green / dead bacteria stained red", "setting": "P. aeruginosa [3]; FIG. 5", "value": "a large number of live bacteria stained green and a small number of dead bacteria stained red"},
      {"measurement": "bacterial morphology under a scanning electron microscope", "setting": "P. aeruginosa [3]; FIG. 6", "value": "regular and intact morphology"},
      {"measurement": "bacterial colonies on plates (plate experiment)", "setting": "[4]; FIG. 4", "value": "overgrown with bacteria"},
      {"measurement": "live bacteria stained green / dead bacteria stained red", "setting": "[4]; FIG. 5", "value": "a large number of live bacteria stained green and a small number of dead bacteria stained red"},
      {"measurement": "bacterial morphology under a scanning electron microscope", "setting": "[4]; FIG. 6", "value": "regular and intact morphology"},
      {"measurement": "corneal infection", "setting": "P. aeruginosa [5]", "value": "obviously infected"},
      {"measurement": "bacterial colonies on plates (plate experiment)", "setting": "[6]; FIG. 4", "value": "overgrown with bacteria"},
      {"measurement": "live bacteria stained green / dead bacteria stained red", "setting": "[6]; FIG. 5", "value": "a large number of live bacteria stained green and a small number of dead bacteria stained red"},
      {"measurement": "bacterial morphology under a scanning electron microscope", "setting": "[6]; FIG. 6", "value": "regular and intact morphology"},
      {"measurement": "bacterial colonies on plates (plate experiment)", "setting": "[7]; FIG. 4", "value": "overgrown with bacteria"},
      {"measurement": "live bacteria stained green / dead bacteria stained red", "setting": "[7]; FIG. 5", "value": "a large number of live bacteria stained green and a small number of dead bacteria stained red"},
      {"measurement": "bacterial morphology under a scanning electron microscope", "setting": "[7]; FIG. 6", "value": "regular and intact morphology"}
    ]},
    {"compound": "NC[C@H]1O[C@H](O[C@H]2[C@H](O)[C@@H](O[C@H]3O[C@H](CO)[C@@H](O)[C@H](N)[C@H]3O)[C@H](N)C[C@@H]2N)[C@H](N)C[C@@H]1O", "note": "[tobramycin]", "values": [
      {"measurement": "corneal infection", "setting": "[2]", "value": "significant infection"}
    ]}
  ]
}
